Laboratory results: patent US8445246B2, “Flavin-binding glucose dehydrogenases” (Kikkoman Corporation, priority 2009, dated 2013)

Experiments:
[1] = tested on: flavin-binding GDH of the invention; assay: Inhibiting effect of 1,10-phenanthroline; assay type: biochemical
Source text: (§1) The inhibiting effect of […] on the activity of the flavin-binding GDH of the invention was examined in the following manner.

MjGDH = assay: Inhibiting effect of 1,10-phenanthroline on MjGDH; assay type: biochemical, Mucor javanicus NISL0111
Source text: as §1

MpGDH = assay: Inhibiting effect of 1,10-phenanthroline on MpGDH; assay type: biochemical, Mucor prainii NISL0103
Source text: as §1

McGDH = assay: Inhibiting effect of 1,10-phenanthroline on McGDH; assay type: biochemical, Mucor circinelloides f. circinelloides NISL0117
Source text: as §1

## c1cnc2c(c1)ccc1cccnc12 [1,10-phenanthroline]
[1]; 1 mM 1,10-phenanthroline
  inhibiting effect: 2-4%
[1]; 5 mM 1,10-phenanthroline
  inhibition rate: about 10%
MjGDH; 1,10-phenanthroline 1 mM
  GDH inhibition rate (%): 3.27%
MjGDH; 1,10-phenanthroline 5 mM
  GDH inhibition rate (%): 13.1%
MjGDH; 1,10-phenanthroline 10 mM
  GDH inhibition rate (%): 23.5%
MjGDH; 1,10-phenanthroline 25 mM
  GDH inhibition rate (%): 64.7%
MjGDH; 1,10-phenanthroline 50 mM
  GDH inhibition rate (%): 88.9%
MpGDH; 1,10-phenanthroline 1 mM
  GDH inhibition rate (%): 3.72%
MpGDH; 1,10-phenanthroline 5 mM
  GDH inhibition rate (%): 10.1%
MpGDH; 1,10-phenanthroline 10 mM
  GDH inhibition rate (%): 23.9%
MpGDH; 1,10-phenanthroline 25 mM
  GDH inhibition rate (%): 44.1%
MpGDH; 1,10-phenanthroline 50 mM
  GDH inhibition rate (%): 68.6%
McGDH; 1,10-phenanthroline 1 mM
  GDH inhibition rate (%): 1.95%
McGDH; 1,10-phenanthroline 5 mM
  GDH inhibition rate (%): 8.23%
McGDH; 1,10-phenanthroline 10 mM
  GDH inhibition rate (%): 12.8%
McGDH; 1,10-phenanthroline 25 mM
  GDH inhibition rate (%): 36.2%
McGDH; 1,10-phenanthroline 50 mM
  GDH inhibition rate (%): 68.5%
